Read-outs that look alike come from different tables or passages of the source.

Holding throughout (type): cell-based
A short description of data set [1]: Cell viability assay (MTT method). To be noted: human. As for the experimental part:
(§1) […] Tested cell lines were cultured in Dulbecco’s modified Eagle’s medium (DMEM) (Invitrogen, Carlsbad, CA, USA) supplemented with 5% fetal bovine serum (Hyclone, Logan, UT, USA), 2 mM L-glutamine, […] streptomycin, and 100 units/mL penicillin (Invitrogen). The cultures were maintained at 37 °C in a humidified atmosphere of 5% CO2.
On the technique in general: Tetrazolium dyes change colour on reduction, which living cells bring about.

For data set [2], the system named is HEK 293T-hACE2 cells. The data set is described as follows: Cell viability assay (MTT method). To be noted: at 80 μM, 293T cells. On the procedure: as §1
The test system of data set [3] is SARS-CoV-2 (BA.2). Nature of the data set: microbe, parasite or virus in culture. Conditions: for EC50: 48 h, mean from three parallel experiments, read-out: Inhibition of SARS-CoV-2 Viruses (EC50/μM).
Setting [4] is: 293T cell, MTT, mean from three parallel experiments, read-out: Cytotoxicity for 293T Cell (IC50/μM).
Setting [5] is: Severe acute respiratory syndrome coronavirus 2, HEK-293T, […].

With `CC=CC=CC(O)=C1C(=O)C2(C)C(=O)C(C)(O)C1C(C1(C)OC(=O)C(C)=C1O)C2C(=O)C=CC=CCO` (stereo not drawn) [Compound 2, 20-hydroxybislongiquinolide], the IC50 in data set [1] (setting [4]) was above 80 µM. Moreover, the cytotoxicity result in data set [2] is “without cytotoxicity”. Further, the EC50 in data set [3] (setting [5]) is 29 µM.
Turning to `CC(=O)Oc1cc(/C=C/C=C/C(=O)O)oc(=O)c1C` [Compound 5, Acetylchrysopyrone B], the IC50 in data set [1] (setting [4]) is above 80 µM. In addition, the “antiviral activity against SARS-CoV-2” value in data set [3] was “no activity”. For the same compound, the EC50 in data set [3] (setting [5]) is above 80 µM.
With `CCC(CC)COC(=O)[C@H](C)N[P@](=O)(OC[C@H]1O[C@@](C#N)(c2ccc3c(N)ncnn23)[C@H](O)[C@@H]1O)Oc1ccccc1` [Remdesivir, reference compound], the IC50 in data set [1] was above 80 µM; in data set [3] (Severe acute respiratory syndrome coronavirus 2, HEK-293T, […], read-out: IC50 (positive control, SARS-CoV-2 assay)) it was 1.2 µM. The EC50 in data set [3] (setting [5]) came out at 1.2 µM.
For `CC1=C(O)C(C)(C2C3C(=C(O)C=CC=CCO)C(=O)C(C)(C(=O)C3(C)O)C2C(=O)C=CC=CCO)OC1=O` (stereo not drawn) [Compound 3, 14, 20-dihydroxybislongiquinolide], the IC50 in data set [1] (setting [4]) was above 80 µM. Further, the “antiviral activity against SARS-CoV-2” value in data set [3] is reported as “no activity”. Moreover, the EC50 in data set [3] (setting [5]) is above 80 µM.
As to `CC=CC=CC(=O)C1C(C2(C)OC(=O)C(C)=C2O)C2C(=C(O)C=CC=CCO)C(=O)C1(C)C(=O)C2(C)O` (stereo not drawn) [Compound 1, 14-hydroxybislongiquinolide], the IC50 in data set [1] (setting [4]) was above 80 µM. For the same compound, in data set [3], the “antiviral activity against SARS-CoV-2” value is “no activity”. Further, in data set [3] (setting [5]), the EC50 was above 80 µM.

(Values after paper PMC10455806, “New Sorbicillinoids from the Mangrove Endophytic Fungus Trichoderma reesei SCNU-F0042” (Marine Drugs, 2023).)
